Earlier results on 3 molecules are cited in paper PMC7340670, “Phase I study of TAS-115, a novel oral multi-kinase inhibitor, in patients with advanced solid tumors” (Investigational New Drugs, 2019).

Data set [1] deals with patients with solid tumours. Set-up: method as in PMID 21606412. The settings on record: phase I study for solid tumours; cited from earlier work.
Data set [2] relates to circulating sMET. Also noted: method as in PMID 21606412, PMID 21156020, PMID 24687921. The settings on record: previous clinical studies; cited from earlier work.

As for `COc1cc2nccc(Oc3ccc(NC(=O)C4(C(=O)Nc5ccc(F)cc5)CC4)cc3)c2cc1OC` [cabozantinib], in data set [1], the TRAE decreased appetite was 48%, the TRAE diarrhea was 57%, the TRAE fatigue is given as 55% and the TRAE nausea is listed as 43%. Besides, the “TRAEs neutropenia, anemia, hypophosphatemia, and thrombocytopenia” value in data set [1] is given as “not observed”. For the same molecule, the “levels of circulating sMET” value in data set [2] is given as “Increased levels”.
Take “rilotumumab: agent of a previous clinical study in which increased circulating sMET was reported (ref 20)”: in data set [2], the “levels of circulating sMET” value was “Increased levels”.
Consider “onartuzumab: agent of a previous clinical study in which increased circulating sMET was reported (ref 21)”, for which, in data set [2], the “levels of circulating sMET” value is on record as “Increased levels”.
